Measured values: patent US20040009973A1, “Novel potassium channels modulators” (4SC AG, priority 2002, published 2004)

Molecular target: T1, BK potassium channel, cloned hSlo (α-hSlo and β-bSlo) in CHO cells (Homo sapiens, UniProt Q12791)
T1 construct: expressed in transfected cells; host or cells: CHO cells, permanently transfected
Assay: Em-Assay: membrane potential with voltage sensitive dye DiBAC(4)3, fluorescence plate reader
Format: cell-based
Details: compound 50 μM; NS004 25 or 50 μM; hSlo transfected CHO cells; change in DiBAC(4)3 fluorescence intensity
Excerpt: The large conductance, voltage-dependent and Ca^2+-activated potassium channel BK is a potassium selective ion channel and belongs to the subfamily of KCa channels. Four BK alpha-subunits form a functional channel that can be regulated by intracellular Ca^2+ concentration, membrane voltage, and other mechanisms like phosphorylation states or beta subunits. To test the biological activity of the compounds, we applied two different techniques, a fluorescence based assay using a voltage sensitive dye (Em-Assay) as well as exploiting electrophysiological methods.
CHO cells permanently transfected with cloned hSlo (α-hSlo and β-bSlo), yielding typical BK potassium currents (Zhou et al., Pflügers Arch., 436: 725-734 (1998), were used for the evaluation of compound activity. Activation or inhibition of BK channels in these cells leads to a change of the electrochemical gradient causing a hyperpolarized or depolarised membrane potential, respectively.
To determine changes in the membrane potential of the cells we used the voltage sensitive dye DiBAC(4)3 (Molecular Probes) in a kinetic assay system using a fluorescent plate reader (Manning and Sontheimer, J. Neurosci, Meth., 91: 73-81 (1999). The anionic bis-oxonol DiBAC(4)3 is a voltage sensitive dye which partitions from the extracellular environment into the cell where it reversibly binds to intracellular proteins, a kinetic process depending on the membrane potential of the cell. At depolarised potentials (i.e. at a reduced K^+ efflux due to blocked K^+ channels) the dye accumulates in the cell leading to an increased fluorescence intensity, due to its increased fluorescence if bound to cellular proteins. At hyperpolarized potentials (i.e. at an increased K^+ efflux due to the opening of K^+ channels), the dye partitions out of the cell causing a decreased fluorescence intensity.
hSlo transfected CHO cells where maintained in DMEM supplemented with 10% FCS, 250 μg/ml Geneticin, 100 μg/ml Hygromycin, 1×HT-Supplement, and 1×Non-essential Amino Acids and cultured in a humidified CO2 incubator. After trypsination, cells where plated with a density of 5×10^4 cells per well on a clear 96-well plate and incubated for 24 h. Cells where washed once with PBS, once with PBS containing 20 mM HEPES (adjusted to pH 7.4 with NaOH) and 2 μM DIBAC(4)3 (DPBS-DiBAC solution). 180 μl of the dPBS-DiBAC solution was then added to the cells and the plate incubated for 30-60 min at 37° C. During this time the dye could partition into the cells and reach a certain steady-state distribution, depending on the resting membrane potential. Test and reference compounds were stored as DMSO stock solutions and diluted in dPBS-DiBAC solution to the desired concentration.
Fluorescence intensity (Ex.: 485 nm/Em.: 520 nm) of each well was detected in the plate reader (Fluostar, BMG) every 60 seconds. After recording the baseline fluorescence for 7 minutes, 20 μl test—and reference compounds were added and the fluorescence intensity was detected for additional 15 minutes. Background was subtracted, data values were normalized and expressed as a change in fluorescence intensity against time. The change in fluorescence intensity caused by the test compounds was evaluated, compared to the effect of the reference compound NS004, and the ratio was determined (see Table I).

T1 sequence (Q12791 1-1178 isoform Q12791-5): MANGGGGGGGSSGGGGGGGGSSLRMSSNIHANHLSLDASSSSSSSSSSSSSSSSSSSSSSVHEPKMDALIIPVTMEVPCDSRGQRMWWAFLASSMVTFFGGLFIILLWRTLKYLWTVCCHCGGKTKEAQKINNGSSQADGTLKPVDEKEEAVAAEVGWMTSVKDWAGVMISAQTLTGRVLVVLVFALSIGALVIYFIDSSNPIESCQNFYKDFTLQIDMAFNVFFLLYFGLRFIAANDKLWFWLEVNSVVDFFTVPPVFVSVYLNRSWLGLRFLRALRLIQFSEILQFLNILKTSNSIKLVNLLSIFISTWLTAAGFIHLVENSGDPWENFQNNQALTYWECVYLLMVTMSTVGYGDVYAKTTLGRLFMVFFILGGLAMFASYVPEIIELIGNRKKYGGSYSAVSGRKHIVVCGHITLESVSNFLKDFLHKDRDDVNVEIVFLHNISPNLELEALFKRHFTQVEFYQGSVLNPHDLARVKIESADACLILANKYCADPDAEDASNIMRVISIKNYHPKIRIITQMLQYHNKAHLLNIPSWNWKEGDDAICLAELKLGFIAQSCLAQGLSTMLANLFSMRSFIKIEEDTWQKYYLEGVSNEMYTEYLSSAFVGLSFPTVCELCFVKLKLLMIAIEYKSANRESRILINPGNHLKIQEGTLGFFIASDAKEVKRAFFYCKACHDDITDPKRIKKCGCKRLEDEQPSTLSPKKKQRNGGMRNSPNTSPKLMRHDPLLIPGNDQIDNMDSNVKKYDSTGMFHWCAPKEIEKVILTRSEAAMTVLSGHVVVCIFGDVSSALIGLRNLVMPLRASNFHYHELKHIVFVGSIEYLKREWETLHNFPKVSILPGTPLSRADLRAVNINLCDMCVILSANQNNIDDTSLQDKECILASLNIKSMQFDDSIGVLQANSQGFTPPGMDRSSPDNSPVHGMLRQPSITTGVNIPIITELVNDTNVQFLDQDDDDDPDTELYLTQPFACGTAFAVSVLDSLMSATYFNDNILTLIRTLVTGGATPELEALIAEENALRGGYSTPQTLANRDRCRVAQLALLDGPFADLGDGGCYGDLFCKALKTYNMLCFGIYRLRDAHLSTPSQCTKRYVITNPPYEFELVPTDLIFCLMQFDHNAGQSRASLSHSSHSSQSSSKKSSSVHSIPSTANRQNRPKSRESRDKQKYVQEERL
T1 sequence (Q28067 2-191 partner limits assumed): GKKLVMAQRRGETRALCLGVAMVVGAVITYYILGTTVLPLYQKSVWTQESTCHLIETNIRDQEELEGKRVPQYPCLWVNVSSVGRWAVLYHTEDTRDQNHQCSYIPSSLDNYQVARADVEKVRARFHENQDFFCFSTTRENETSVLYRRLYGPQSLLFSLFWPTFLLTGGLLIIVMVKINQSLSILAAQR

Em effect: ratio of the compound effect compared to the maximal effect of NS004 | Structure (SMILES)
+ (0-1 = +) | Fc1ccc(CNc2cccc(NCc3cccc(Cl)c3)c2)c(F)c1 [Compound 55, N-(3-chlorobenzyl)-N′-(2,4-difluorobenzyl)-benzene-1,3-diamine]
++ (>1-1.5 = ++) | FC(F)(F)c1ccccc1CNc1cccc(NCc2ccccc2C(F)(F)F)c1 [Compound 39]
+ (0-1 = +) | Fc1ccc(CNc2cccc(NCc3csc4ccc(Cl)cc34)c2)c(Cl)c1 [Compound 64, N-(5-chlorobenzo[b]thiophen-3-ylmethyl)-N′-(2-chloro-4-fluorobenzyl)-benzene-1,3-diamine]
+ (0-1 = +) | N#Cc1cccc(CNc2cccc(NCc3ccc(C(F)(F)F)cc3)c2)c1 [Compound 68]
+ (0-1 = +) | Fc1cccc(Cl)c1CNc1cccc(NCc2c(F)cccc2Cl)c1 [Compound 29]
+ (0-1 = +) | Fc1cccc(CNc2cccc(NCc3csc4ccc(Cl)cc34)c2)c1 [Compound 60]
+ (0-1 = +) | Fc1cccc(CNc2cccc(NCc3ccccc3Cl)c2)c1 [Compound 48]
+ (0-1 = +) | COc1cccc(CNc2cccc(NCc3cccc(OC)c3)c2)c1 [Compound 33]
+ (0-1 = +) | COc1cccc(CNc2cccc(NCc3csc4ccc(Cl)cc34)c2)c1 [Compound 56, N-(5-chlorobenzo[b]thiophen-3-ylmethyl)-N′-(3-methoxybenzyl)-benzene-1,3diamine]
+ (0-1 = +) | Clc1ccccc1CNc1cccc(NCc2ccccc2Cl)c1 [Compound 32]
+ (0-1 = +) | CS(=O)(=O)c1ccc(CNc2cccc(NCc3ccc(F)cc3Cl)c2)cc1 [Compound 65, N-(2-chloro-4-fluorobenzyl)-N′-(4-methanesulfonylbenzyl)-benzene-1,3-diamine]
+ (0-1 = +) | Clc1ccccc1CNc1ccc(NCc2ccccc2Cl)c(Cl)c1 [Compound 96]
++ (>1-1.5 = ++) | Clc1cccc(CNc2cccc(NCc3ccccc3Cl)c2)c1 [Compound 47]

The remaining lines, values behind:

Structure (SMILES) | Em effect: ratio of the compound effect compared to the maximal effect of NS004
COc1cccc(CNc2cc(NCc3ccc(C(F)(F)F)cc3)cc(C(F)(F)F)c2)c1 [Compound 83, N-(3-methoxybenzyl)-5-tri-fluoromethyl-N′-(4-tri-fluoromethylbenzyl)-benzene-1,3-diamine] | + (0-1 = +)
Fc1ccc(CNc2cccc(NCc3ccc(-c4csnn4)cc3)c2)c(F)c1 [Compound 52, N-(2,4-difluorobenzyl)-N′-(4-[1,2,3]thiadiazol-4-yl-benzyl)-benzene-1,3-diamine] | + (0-1 = +)
CC(C)(C)c1ccc(CNc2cc(NCc3ccc(-c4csnn4)cc3)cc(C(F)(F)F)c2)cc1 [Compound 79, N-(4-tert-butylbenzyl)-N′-(4-[1,2,3]thiadiazol-4-yl-benzyl)-5-tri-fluoromethylbenzene-1,3-diamine] | + (0-1 = +)
FC(F)(F)c1cc(NCc2ccc(Br)cc2)cc(NCc2ccc(Br)cc2)c1 [Compound 2] | + (0-1 = +)
Fc1cc(F)cc(CNc2ccc(NCc3cc(F)cc(F)c3)cc2)c1 [Compound 98, N,N′-bis-(3,5-difluorobenzyl)-benzene-1,4-diamine] | + (0-1 = +)
Fc1cccc(Cl)c1CNc1ccc(NCc2c(F)cccc2Cl)cc1 [Compound 92] | + (0-1 = +)
Fc1ccc(CNc2cc(NCc3ccc(F)cc3F)cc(C(F)(F)F)c2)c(F)c1 [Compound 69] | + (0-1 = +)
O=[N+]([O-])c1ccc(CNc2cccc(NCc3ccc(F)cc3F)c2)o1 [Compound 54, N-(2,4-difluorobenzyl)-N′-(5-nitrofuran-2-ylmethyl)-benzene1,3-diamine] | + (0-1 = +)
CC(C)(C)c1ccc(CNc2cc(NCc3ccc(C(F)(F)F)cc3)cc(C(F)(F)F)c2)cc1 [Compound 84] | + (0-1 = +)
Fc1ccc(CNc2cccc(NCc3ccc(F)cc3F)c2)c(F)c1 [Compound 28, N,N′-bis-(2,4-difluorobenzyl)-benzene-1,3-diamine] | ++ (>1-1.5 = ++)
FC(F)(F)c1ccccc1CNc1cccc(NCc2ccc(-c3csnn3)cc2)c1 [Compound 61, N-(4-[1,2,3]thiadiazol-4-yl-benzyl)-N′-(2-tri-fluoromethylbenzyl)-benzene-1,3-diamine] | + (0-1 = +)
CS(=O)(=O)c1ccc(CNc2cccc(NCc3c(F)cccc3F)c2)cc1 [Compound 50, N-(2,6-difluorobenzyl)-N′-(4-methanesulfonylbenzyl)-benzene-1,3-diamine] | + (0-1 = +)
FC(F)(F)c1ccc(CNc2ccc(NCc3ccc(C(F)(F)F)cc3)c(Cl)c2)cc1 [Compound 105] | + (0-1 = +)
Fc1ccc(CNc2ccc(NCc3ccc(F)cc3F)c(Cl)c2)c(F)c1 [Compound 106] | + (0-1 = +)
COc1cccc(CNc2cccc(NCc3ccc(-c4csnn4)cc3)c2)c1 [Compound 59, N-(3-methoxybenzyl)-N′-(4-[1,2,3]thiadiazol-4-yl-benzyl)-benzene-1,3-diamine] | + (0-1 = +)
O=[N+]([O-])c1ccc(CNc2cc(NCc3ccccc3C(F)(F)F)cc(C(F)(F)F)c2)o1 [Compound 85] | + (0-1 = +)
CC(C)(C)c1ccc(CNc2cc(NCc3ccc(C(C)(C)C)cc3)cc(C(F)(F)F)c2)cc1 [Compound 77, N,N′-bis-(4-tert-butylbenzyl)-5-trifluoromethylbenzene-1,3-diamine] | + (0-1 = +)
Fc1cc(F)cc(CNc2cccc(NCc3cc(F)cc(F)c3)c2)c1 [Compound 27, N,N′-bis-(3,5-difluorobenzyl)-benzene-1,3-diamine] | ++ (>1-1.5 = ++)
Fc1cccc(Cl)c1CNc1ccc(NCc2c(F)cccc2Cl)c(Cl)c1 [Compound 94] | + (0-1 = +)
COc1cccc(CNc2cc(NCc3cccc(OC)c3)cc(C(F)(F)F)c2)c1 [Compound 76, N,N′-bis-(3-methoxybenzyl)-5-trifluoromethylbenzene-1,3-diamine] | + (0-1 = +)
CC(C)(C)c1ccc(CNc2cccc(NCc3ccc(S(C)(=O)=O)cc3)c2)cc1 [Compound 43, N-(4-tert-butylbenzyl)-N′-(4-methanesulfonylbenzyl)-benzene-1,3-diamine] | + (0-1 = +)
Cc1cc(NCc2ccc(Br)cc2)ccc1NCc1ccc(Br)cc1 [Compound 18] | + (0-1 = +)
N#Cc1ccccc1-c1ccc(CNc2cc(NCc3ccc(-c4ccccc4C#N)cc3)cc(C(F)(F)F)c2)cc1 [Compound 73] | + (0-1 = +)
